# Key:
# [1] = test system: HSV-1 17syn+ ocular infection; assay: HSV-1 ocular infection mouse model, combined clinical score (epiphora, inflammation, discharge); type: in vivo, Balb/c mice; conditions: 1% TFT, 0.01% flavopiridol, 0.1% DRB drops
# Experimental: The combined clinical score was determined based on epiphora (excess tearing), inflammation and discharge. […], +1=slight manifestations, +2=moderate manifestations, and +3=severe manifestations.
# All experimental procedures were performed in accordance with the ARVO Resolution for the Use of Animals in Ophthalmic and Vision Research and were approved by the Xavier University Animal Care and Use Committee. Female 20 g Balb/c mice were obtained from Charles River Laboratories. Mice were allowed to equilibrate to their surroundings for 2 weeks and then were anesthetized by intramuscular administration of xylazine (6.6 mg/kg of body weight) and ketamine (100 mg/kg of body weight). The corneas were mildly scarified in a 2×2 cross-hatch pattern and each cornea was inoculated with 5×10^5 PFU of strain HSV 17syn+. […] DNA was collected by swabbing the eyes with filter paper, and the eyes were examined with a slit-lamp on PI days 2, 4, 7, 9, 11, 14, 18 and 25. Average neovascularization/eye was scored using the formula A=(C×0.4×L×π)/2 where C=clock hours of neovascularization; 30° arc is 1 (360° circle with a total of 12); L is the length of the longest neovessel, and A is the area of neovascularization. Students scored (by eye) the animals on the days indicated in a masked fashion using the slit-lamp, and images representative of each group were taken. Clinical scores based on epiphora, inflammation and discharge were calculated where 0=no manifestations, +1=slight manifestations, +2=moderate manifestations, and +3=severe manifestations. Mice were sacrificed with CO2 on day 25 post-infection, and eyes were harvested, sectioned, stained with hematoxylin and eosin (H&E) for histological analysis based on peripheral neovascularization and leukocytic infiltration where 0=clear eyes, 0.5=either peripheral neovascularization or leukocytic infiltration, and 1=both peripheral neovascularization and leukocytic infiltration. Ex ovo chick embryo chorioallantoic membrane collagen angiogenesis assays were performed using methods as previously described (Deryugina E I and Quigley J P. Chapter 2. Chick embryo chorioallantoic membrane models to quantify angiogenesis induced by inflammatory and tumor cells or purified effector molecules. Methods Enzymol. 444:21-41. 2008). Briefly, fertilized embryos (Charles River Laboratories, Charleston, S.C.) were incubated at 37.5° C. for 3 days, removed from their shell using a Dremel tool and placed into a covered weighing boat for 7 further days of incubation. […] Four collagen onplants were added per egg on at least 3 separate eggs. After three additional days of incubation, images were taken of each plug using a mini-Vid camera (LW Scientific; Lawrenceville, Ga.) and quantified in a masked fashion based on the percentage of grids that were positive for newly formed blood vessels.
# FIG. 1B is the combined clinical score for the treatment groups based on epiphora (excess tearing), inflammation, and discharge.
# HUVEC = assay: Endothelial cell Matrigel transwell invasion assay; type: cell-based, human; conditions: 25 ng/mL VEGF and bFGF
# Experimental: After 12-16 hours, tubules were counted at low magnification and percentage of inhibition was expressed using VEGF control wells as 100%.
# Migration/invasion assays were performed using 24-well, 8-μm pore size BD Biocoat Matrigel migration chambers according to the manufacturer's instructions (BD Biosciences, San Jose, Calif.). […] Cells were allowed to migrate for 16 hours at 37° C. Following incubation, cotton swabs were used to remove the cells on the top surface of the membrane, and cells on the bottom side of the membrane were fixed with 4% formaldehyde for 30 min, washed 3-5 times with PBS, and then stained with 10 μM Calcein AM (migration) or 10 μM Celltracker green-labeled (invasion). Migrating or invading cells from three repeats in two independent experiments were then counted using an inverted microscope. Data are expressed as mean percent migration and mean percent invading cells compared with untreated cells±SEM.
# In addition to migration, new blood vessel formation requires that endothelial cells invade through extracellular matrix (ECM) surrounding the existing vasculature. Inhibition of invasion therefore inhibits angiogenesis. […] Celltracker green-labeled HUVEC that successfully degraded the Matrigel and crossed into the lower chamber containing 25 ng/mL VEGF and bFGF in the presence or absence of FP were counted and expressed as a percent of untreated control cells (FIG. 2B).
compound,measurement,setting,value
CN1CC[C@H](c2c(O)cc(O)c3c(=O)cc(-c4ccccc4Cl)oc23)[C@H](O)C1 [flavopiridol],"combined clinical score (epiphora, inflammation, discharge; 0 to +3)",[1]; day 11,0.169±0.248
same,"combined clinical score (epiphora, inflammation, discharge; 0 to +3)",[1]; day 25,0.039±0.177
same,invading cells as percent of untreated control,HUVEC; 50 nM flavopiridol,67.08%±6.50
same,invading cells as percent of untreated control,HUVEC; 100 nM flavopiridol,59.74%±6.98
same,invading cells as percent of untreated control,HUVEC; 200 nM flavopiridol,32.64%±8.58
